Experimental data published in patent US20250281462A1, “THERAPEUTICALLY EFFECTIVE ORAL ADMINISTRATION OF A 2 ARYLBENZIMIDAZOLE” (Tranquis Therapeutics, Inc., priority 2021, published 2025).
“Also recorded” adds a separate entry of the source.

Assays:
PGC-1α = PGC-1α protein expression in BV2 cells (Western blot); type: cell-based, murine; conditions: 20 μM, 24 hours
Procedure: Frozen BV2 murine microglia cells were thawed and propagated in complete media (RPMI, 10% heat-inactivated FBS, 1% L-glutamine, 1% Pen-Strep) until the growth rate reached log phase. For protein expression analysis, DMSO (1:1000 final dilution) or TQS-168 in DMSO (1:1000 final dilution) at 20 μM was added to cell cultures. After 24 hours stimulation, supernatant was discarded and cell lysis buffer (Cell Signal) was added to adherent cells to extract protein. Total protein was quantified and normalized across all samples by BCA assays. Two replicates of untreated cultures and three replicates of TQS-168-treated cultures were investigated, with each replicate containing lysates from 5,000,000 BV2 myeloid cells. PGC1α expression was detected by Western Blot using an anti-PGC-1α antibody (SC13067, Santa Cruz Biotechnology, 1:500 dilution). Anti-[…] antibody (SC8432, Santa Cruz Biotechnology, 1:2000 dilution) was used to quantify beta-actin, a housekeeping gene whose expression level is not known to be affected by TQS-168. […] Total protein was quantified and normalized across all samples by BCA assays. PGC-1α was subsequently detected by Western Blot using an anti-PGC-1α antibody (SC13067, Santa Cruz Biotechnology, 1:500 dilution). β-actin was detected with an anti-β-actin antibody (SC8432, Santa Cruz Biotechnology, 1:2000 dilution). […]

[1] = Phase 1 single ascending dose (SAD) trial, plasma pharmacokinetics (Part 1); conditions: human; for Frel AUC(0-inf)/D / Frel AUC(0-last)/D / Frel Cmax/D: dose normalized comparison to Regimen C 540 mg MC; for AUC(0-t) / AUC(0-inf) / Cmax / half-life / Tmax: male, in vivo, po, single dose; for AUC(0-t) / AUC(0-inf) / Cmax / Tmax: human plasma; for half-life: T1/2, human plasma; for Tmax: median
[2] = 90 mg SDD, fasted (Regimen G) versus fed (Regimen F)
[3] = 180 mg HME (Regimen E) compared to MC counterpart (Regimen B)
[4] = 180 mg SDD (Regimen D) compared to MC counterpart (Regimen B)
[5] = MC formulation, 60 mg to 540 mg TQS-168 (9-fold increase in dose)
[6] = MC formulation, 180 mg to 540 mg TQS-168 (3-fold increase in dose)
[7] = SDD fasted, 270 mg (Regimen H) vs 90 mg (Regimen G)
[8] = SDD fasted, 270 mg (Regimen H) vs 180 mg (Regimen D)
[9] = Regimen D 180 mg SDD, geometric mean
[10] = Regimen E 180 mg HME, comparison to Regimen D 180 mg SDD, geometric mean
[11] = Regimen E 180 mg HME, geometric mean
[12] = 60 mg, Regimen A: 60 mg TQS-168 MC oral suspension, fasted, geometric mean
[13] = 60 mg, Regimen A: 60 mg TQS-168 MC oral suspension, fasted
[14] = 90 mg, Regimen F: 90 mg TQS-168 SDD oral suspension, fed (high fat breakfast), geometric mean
[15] = 90 mg, Regimen G: 90 mg TQS-168 SDD oral suspension, fasted, geometric mean
[16] = 90 mg, Regimen G: 90 mg TQS-168 SDD oral suspension, fasted
[17] = 180 mg, Regimen B: 180 mg TQS-168 MC oral suspension, fasted, geometric mean
[18] = 180 mg, Regimen D: 180 mg TQS-168 SDD oral suspension, fasted, geometric mean
[19] = 180 mg, Regimen E: 180 mg TQS-168 HME oral suspension, fasted, geometric mean
[20] = 180 mg, Regimen B: 180 mg TQS-168 MC oral suspension, fasted
[21] = 180 mg, Regimen D: 180 mg TQS-168 SDD oral suspension, fasted
[22] = 180 mg, Regimen E: 180 mg TQS-168 HME oral suspension, fasted
[23] = 270 mg, Regimen H: 270 mg TQS-168 SDD oral suspension, fasted, geometric mean
[24] = 270 mg, Regimen H: 270 mg TQS-168 SDD oral suspension, fasted
[25] = 540 mg, Regimen C: 540 mg TQS-168 MC oral suspension, fasted, geometric mean
[26] = 540 mg, Regimen C: 540 mg TQS-168 MC oral suspension, fasted

## CC(C)(C)c1ccc(-c2nc3ccccc3[nH]2)cc1 [TQS-168, 2-(4-tert-butylphenyl)-1H-benzimidazole]
PGC-1α
  induction of PGC-1α protein expression: induces PGC-1α protein expression; also recorded: induction of PGC-1α protein expression
[1]; [2]
  increase in AUC(0-inf): ~14%
  increase in Cmax: approximately 136%
[1]; [3]
  fold increase in geometric mean AUC(0-inf): 2.06 fold
  fold increase in geometric mean AUC(0-last): 2.14 fold
  fold increase in geometric mean Cmax: 2.32 fold
[1]; [4]
  fold increase in geometric mean AUC(0-inf): 3.45 fold
  fold increase in geometric mean AUC(0-last): 3.64 fold
  fold increase in geometric mean Cmax: 4.11 fold
[1]; [5]
  fold increase in AUC(0-24): 20.2 fold
  fold increase in AUC(0-inf): 21.2 fold
  fold increase in Cmax: 12.1 fold
[1]; [6]
  fold increase in AUC(0-24): 8.8 fold
  fold increase in AUC(0-inf): 9.5 fold
  fold increase in Cmax: 6.1 fold
[1]; [7]
  fold increase in AUC(0-inf): 4.29 fold
  fold increase in Cmax: 2.14 fold
[1]; [8]
  increase in AUC(0-inf): ~26%
  increase in Cmax: approximately 8.7%
[1]; [9]
  Frel AUC(0-inf)/D: 118%
  Frel AUC(0-last)/D: 120%
  Frel Cmax/D: 218%
[1]; [10]
  Frel AUC(0-inf): 59.6%
  Frel AUC(0-last): 58.9%
  Frel Cmax: 56.6%
[1]; [11]
  Frel AUC(0-inf)/D: 70.4%
  Frel AUC(0-last)/D: 70.9%
  Frel Cmax/D: 124%
[1]; 60 mg, AUC(0-24), Regimen A: 60 mg TQS-168 MC oral suspension, fasted, geometric mean
  AUC(0-t): 71.2 ng·h/mL
[1]; [12]
  AUC(0-inf): 72.7 ng·h/mL
  Cmax: 26.7 ng/mL
  half-life: 3.06 h
[1]; 60 mg, AUC(0-last), Regimen A: 60 mg TQS-168 MC oral suspension, fasted, geometric mean
  AUC(0-t): 67.6 ng·h/mL
[1]; [13]
  Cmax: 110 nM
  Tmax: 1 h
[1]; 90 mg, AUC(0-24), Regimen F: 90 mg TQS-168 SDD oral suspension, fed (high fat breakfast), geometric mean
  AUC(0-t): 168 ng·h/mL
[1]; 90 mg, AUC(0-24), Regimen G: 90 mg TQS-168 SDD oral suspension, fasted, geometric mean
  AUC(0-t): 192 ng·h/mL
[1]; [14]
  AUC(0-inf): 171 ng·h/mL
  Cmax: 47.1 ng/mL
  half-life: 3.52 h
[1]; [15]
  AUC(0-inf): 195 ng·h/mL
  Cmax: 111 ng/mL
  half-life: 4.85 h
[1]; 90 mg, AUC(0-last), Regimen F: 90 mg TQS-168 SDD oral suspension, fed (high fat breakfast), geometric mean
  AUC(0-t): 166 ng·h/mL
[1]; 90 mg, AUC(0-last), Regimen G: 90 mg TQS-168 SDD oral suspension, fasted, geometric mean
  AUC(0-t): 189 ng·h/mL
[1]; 90 mg, Regimen F: 90 mg TQS-168 SDD oral suspension, fed
  Cmax: 190 nM
[1]; [16]
  Cmax: 440 nM
  Tmax: 0.5 h
[1]; 90 mg, Regimen F: 90 mg TQS-168 SDD oral suspension, fed (high fat breakfast)
  Tmax: 1.5 h
[1]; 180 mg, AUC(0-24), Regimen B: 180 mg TQS-168 MC oral suspension, fasted, geometric mean
  AUC(0-t): 163 ng·h/mL
[1]; 180 mg, AUC(0-24), Regimen D: 180 mg TQS-168 SDD oral suspension, fasted, geometric mean
  AUC(0-t): 608 ng·h/mL
[1]; 180 mg, AUC(0-24), Regimen E: 180 mg TQS-168 HME oral suspension, fasted, geometric mean
  AUC(0-t): 358 ng·h/mL
[1]; [17]
  AUC(0-inf): 180 ng·h/mL
  Cmax: 53.1 ng/mL
  half-life: 7.36 h
[1]; [18]
  AUC(0-inf): 621 ng·h/mL
  Cmax: 218 ng/mL
  half-life: 5.64 h
[1]; [19]
  AUC(0-inf): 370 ng·h/mL
  Cmax: 123 ng/mL
  half-life: 7.25 h
[1]; 180 mg, AUC(0-last), Regimen B: 180 mg TQS-168 MC oral suspension, fasted, geometric mean
  AUC(0-t): 168 ng·h/mL
[1]; 180 mg, AUC(0-last), Regimen D: 180 mg TQS-168 SDD oral suspension, fasted, geometric mean
  AUC(0-t): 611 ng·h/mL
[1]; 180 mg, AUC(0-last), Regimen E: 180 mg TQS-168 HME oral suspension, fasted, geometric mean
  AUC(0-t): 360 ng·h/mL
[1]; [20]
  Cmax: 210 nM
  Tmax: 1 h
[1]; [21]
  Cmax: 870 nM
  Tmax: 1 h
[1]; [22]
  Cmax: 490 nM
  Tmax: 1.5 h
[1]; 270 mg, AUC(0-24), Regimen H: 270 mg TQS-168 SDD oral suspension, fasted, geometric mean
  AUC(0-t): 736 ng·h/mL
[1]; [23]
  AUC(0-inf): 836 ng·h/mL
  Cmax: 237 ng/mL
  half-life: 10.4 h
[1]; 270 mg, AUC(0-last), Regimen H: 270 mg TQS-168 SDD oral suspension, fasted, geometric mean
  AUC(0-t): 801 ng·h/mL
[1]; [24]
  Cmax: 950 nM
  Tmax: 1.5 h
[1]; 540 mg, AUC(0-24), Regimen C: 540 mg TQS-168 MC oral suspension, fasted, geometric mean
  AUC(0-t): 1440 ng·h/mL
[1]; [25]
  AUC(0-inf): 1600 ng·h/mL
  Cmax: 323 ng/mL
  half-life: 10.1 h
[1]; 540 mg, AUC(0-last), Regimen C: 540 mg TQS-168 MC oral suspension, fasted, geometric mean
  AUC(0-t): 1540 ng·h/mL
[1]; [26]
  Cmax: 1290 nM
  Tmax: 2.25 h
